Patent US20190085404A1, “METHODS OF IDENTIFYING AND TREATING IMMUNE CHECKPOINT INHIBITOR-RESPONSIVE NEOPLASMS AND CELLS, TRANSGENIC ANIMALS AND KITS FOR USE THEREIN” (The Board of Trustees of the Leland Stanford Junior …, priority 2016, published 2019)

Assays:
MYC T-ALL 4188 cells = experiment: Chemotherapeutic drug treatment of MYC T-ALL cells, surface protein levels by flow cytometry; assay type: cell-based, mouse; settings: for CD3 expression / CD8 expression / CD25 expression / CD69 expression / CD47 expression / PD-L1 expression: MYC T-ALL 4188 cells, 10 μM; for CD3 expression / CD8 expression / CD25 expression / CD69 expression: flow cytometry; for CD47 expression / PD-L1 expression: flow cytometry MFI; for tumor cell death: MYC T-ALL cells, 10 μM each
Method: (§1) Hematopoietic tumor cell lines (MYC T-ALL 4188 cells derived from the transgenic mouse model, human P493-6, human T-ALL Jurkat, and human T-ALL CCRF-CEM) were grown in RPMI 1640 supplemented with 10% FBS, 1% penicillin/streptomycin, 50 μM 2-mercaptoethanol at 37° C. in 5% CO2. Solid human tumor cell lines (H1299, SKMEL28), mouse MYC HCC, and human HEPG2 were grown in DMEM supplemented with 10% FBS and 1% penicillin/streptomycin at 37° C. in 5% CO2. To turn off expression of the MYC transgene, cells were treated with 20 ng/mL Dox. Primary human T-ALL cells were obtained from four deidentified patient samples and were cultured as previously described (Bruserud et al. 2003). Briefly, cells were cultured in StemSpan H3000 (StemCell) supplemented with human stem cell factor (50 ng/ml), human IL-7 (20 ng/ml), human IL-3 (20 ng/ml), and human FLT3 ligand (20 ng/ml) (Peprotech). Human cell lines were purchased from ATCC.
(§2) Tissues were manually dissociated between microscope slides and strained to remove debris. Lysis buffer (0.15 M NH4Cl, 10 mM KHCO3, 0.1 mM EDTA pH 7.3) was used to remove red blood cells. Cells were washed and resuspended in cold flow cytometry buffer (1% FBS, 0.1% sodium azide in PBS). Staining was performed according to manufacturer instructions with the indicated antibodies (eBioscience). Labeled cells were analyzed on a FACSCalibur (Becton Dickinson), and data was analyzed using FlowJo (Treestar). Each plot is representative of three or more animals. Annexin-V and 7-AAD were used according to manufacturer's protocol (eBioscience).
FIG. 7A: CD47 and PD-L1 protein levels in MYC T-ALL 4188 cells treated with prednisone, cytoxan, cisplatin, or vincristine (10 μM each) were quantified by flow cytometry MFI. Means±SEM are shown, n=3. FIG. 7B-7E: CD3, CD8, CD25, and CD69 protein levels in MYC T-ALL 4188 cells treated as in FIG. 7A were quantified by flow cytometry. Means±SEM are shown (n=3).

[1] = system: human T-ALL cell line CCRF-CEM; experiment: CD47, PD-L1 and MYC expression in CCRF-CEM cells after MYC inhibition; assay type: cell-based
Method: as §1, with “ATCC. […]” for “ATCC.”
(§3) All tissues and cells were flash-frozen in liquid nitrogen and stored at −80° C. until RNA preparation. […] Data was analyzed using the cycle threshold method (normalized to UBC). […]
(§4) Tissues were manually dissociated between microscope slides and strained to remove debris. […] Labeled cells were analyzed on a FACSCalibur (Becton Dickinson), and data was analyzed using FlowJo (Treestar). […]
(§5) FIG. 1A: Flow cytometry median fluorescence intensity (MFI) was used to determine the relative cell surface expression of CD47, PD-L1, and other immune proteins following MYC inactivation in MYC T-ALL 4188 cells in vitro (n=3). FIG. 1B: Tumors were harvested from primary MYC-driven lymphomas 0 or 4 days following MYC inactivation. mRNA and protein levels were quantified by qPCR and flow cytometry MFI (n=3 tumors per condition). […] FIG. 1C: CD47 and PD-L1 protein levels in Jurkat and CCRF-CEM cells were quantified by flow cytometry MFI following MYC inhibition by conditional shRNA knockdown or 10 μM JQ1 treatment (n=3 biological replicates). […]

[2] = system: human T-ALL cell line Jurkat; experiment: CD47, PD-L1 and MYC expression in Jurkat cells after MYC inhibition; assay type: cell-based
Method: as §1, with “ATCC. […]” for “ATCC.”
as §3, §4, §5

[3] = system: human melanoma cell line SKMEL28; experiment: CD47 and PD-L1 mRNA and protein in SKMEL28 cells after MYC inactivation; assay type: cell-based; settings: 48 hours, 10 μM JQ1 or MYC shRNA knockdown
Method: as §1
(§6) shRNA-mediated knockdowns were performed with the pLKO.1 lentiviral vector containing either control, CD47, or PD-L1-specific shRNA. shRNA-mediated knockdown of human MYC was performed with the pLKO.1 lentiviral vector containing a scrambled control or MYC shRNA (Sigma). PD-L1 shRNA on a pLKO.1-puro backbone was purchased from Sigma and CD47 shRNA (Sigma) was cloned into a pLKO.1-Hygro backbone (Addgene). The plasmids were transfected into packaging cells and virus-containing medium supernatants were used to infect tumor cells using polybrene methodology. For conditional knockdowns, stable cell lines were generated and the time course following MYC inactivation with 20 ng/mL Dox is indicated. For stable knockdowns, the time course is indicated as the time post-viral infection.
(§7) All tissues and cells were flash-frozen in liquid nitrogen and stored at −80° C. until RNA preparation. RNA was isolated using the TRIzol Reagent (Invitrogen) according to manufacturer instructions. cDNA was synthesized using SuperScriptIII (ThermoFisher). qPCR was performed using specific primers (Table 51) and the SYBR Green qPCR Kit (Roche) in an Applied Biosystems Real-Time PCR System (Life Technologies) with QuantStudio12K Flex Software. Data was analyzed using the cycle threshold method (normalized to UBC). A minimum of 3 biological and 3 technical replicates were used for all qPCR experiments.
as §4
(§8) FIG. 2A and FIG. 2B: The mRNA and protein levels of MYC, CD47, and PD-L1 in human melanoma SKMEL28 and human NSCLC H1299 cells were determined by qPCR and flow cytometry MFI, respectively, 48 hours after MYC inactivation in vitro. […]

[4] = system: human non-small cell lung cancer (NSCLC) cell line H1299; experiment: CD47 and PD-L1 mRNA and protein in H1299 cells after MYC inactivation; assay type: cell-based; settings: 48 hours, 10 μM JQ1 or MYC shRNA knockdown
Method: as §1, §6, §7, §4, §8

[5] = system: primary human T-ALL cells; experiment: CD47, PD-L1, CD8 and MYC expression in primary human T-ALL samples; assay type: cell-based; settings: 48 h; for CD8 expression / CD47 cell surface expression / PD-L1 cell surface expression: four primary human T-ALL samples, flow cytometry MFI, 10 μM JQ1, 10 μM cisplatin or shRNA
Method: as §1, §6, §7, §2
FIG. 6A-6B: MYC mRNA levels before and after treatment with shRNA against MYC or treatment with JQ1. MYC mRNA was measured by qPCR in human T-ALL cell lines (A, n=3) and primary human T-ALL (B, n=4) cells following MYC inhibition by shRNA or JQ1 treatment after the indicated number of hours (0-48 h for human T-ALL cell lines, 48 h for primary T-ALL).
FIG. 9A: CD47 and PD-L1 protein levels in primary human T-ALL tumor samples were quantified by flow cytometry, following 48 h treatment with control scramble shRNA or MYC-targeting shRNA. FIG. 9B: CD47, PD-L1, or CD8 protein levels in primary human T-ALL tumor samples were quantified by flow cytometry MFI, following 48 h treatment with control scramble shRNA or MYC-targeting shRNA, or treatment with 10 μM JQ1 or 10 μM cisplatin (n=4 distinct patient samples). Means±SEM are shown.

[6] = system: cells derived from mouse MYC-driven HCC; experiment: CD47 and PD-L1 protein levels in mouse MYC-driven HCC cells after chemotherapy treatment; assay type: cell-based; settings: flow cytometry MFI
Method: as §1, with “Briefly, cells were cultured in StemSpan H3000 (StemCell) supplemented with human stem cell factor (50 ng/ml), human IL-7 (20 ng/ml), human IL-3 (20 ng/ml), and human FLT3 ligand (20 ng/ml) (Peprotech). Human cell lines were purchased from ATCC.” left out
as §4
FIG. 8A: CD47 and PD-L1 protein levels in cells derived from mouse MYC-driven HCC, following MYC inactivation or chemotherapy treatment, were quantified by flow cytometry MFI (n=3). FIG. 8B: CD47 and PD-L1 mRNA levels were quantified by qPCR and protein levels were quantified by flow cytometry in primary tumors from mouse MYC-driven HCC, following MYC inactivation (n=3 tumors per condition). […]

[7] = CCRF-CEM, protein by flow cytometry MFI, conditional shRNA knockdown or 10 μM JQ1
[8] = human T-ALL cell lines, qPCR, 0-48 h
[9] = Jurkat, protein by flow cytometry MFI, conditional shRNA knockdown or 10 μM JQ1

SMILES	CD3 expression (MYC T-ALL 4188 cells)	CD8 expression (MYC T-ALL 4188 cells)	CD25 expression (MYC T-ALL 4188 cells)	CD69 expression (MYC T-ALL 4188 cells)	CD47 expression (MYC T-ALL 4188 cells)	PD-L1 expression (MYC T-ALL 4188 cells)	tumor cell death (MYC T-ALL 4188 cells)	CD8 expression [5]	CD47 cell surface expression [5]	PD-L1 cell surface expression [5]	other results
C[C@]12C=CC(=O)C=C1CC[C@@H]1[C@@H]2C(=O)C[C@@]2(C)[C@H]1CC[C@]2(O)C(=O)CO [prednisone]	no effect	no effect	no effect	no effect	either unaffected or showed increased expression	either unaffected or showed increased expression	tumor cell death				
CC[C@]1(O)C[C@H]2CN(CCc3c([nH]c4ccccc34)[C@@](C(=O)OC)(c3cc4c(cc3OC)N(C=O)[C@H]3[C@@](O)(C(=O)OC)[C@H](OC(C)=O)[C@]5(CC)C=CCN6CC[C@]43[C@@H]65)C2)C1 [vincristine]	no effect	no effect	no effect	no effect	either unaffected or showed increased expression	either unaffected or showed increased expression	tumor cell death				
O=P1(N(CCCl)CCCl)NCCCO1 (stereo not drawn) [cytoxan]	no effect	no effect	no effect	no effect	either unaffected or showed increased expression	either unaffected or showed increased expression	tumor cell death				
Cc1sc2c(c1C)C(c1ccc(Cl)cc1)=N[C@@H](CC(=O)OC(C)(C)C)c1nnc(C)n1-2 [JQ1]								unaffected	reduced	reduced	expression of CD47 [1, 7]: reduced; expression of PD-L1 [1, 7]: reduced; expression of MYC mRNA [1, 8]: reduced; expression of CD47 [2, 9]: reduced; expression of PD-L1 [2, 9]: reduced; expression of MYC mRNA [2, 8]: reduced; expression of CD47 protein ([3]; flow cytometry MFI): reduced; expression of PD-L1 protein ([3]; flow cytometry MFI): reduced; expression of CD47 mRNA ([3]; qPCR): reduced; expression of PD-L1 mRNA ([3]; qPCR): reduced; expression of CD47 protein ([4]; flow cytometry MFI): reduced; expression of PD-L1 protein ([4]; flow cytometry MFI): reduced; expression of CD47 mRNA ([4]; qPCR): reduced; expression of PD-L1 mRNA ([4]; qPCR): reduced; expression of MYC mRNA ([5]; primary human T-ALL cells, qPCR): reduced
N.N.[Cl][Pt][Cl] [cisplatin]	no effect	no effect	no effect	no effect	either unaffected or showed increased expression	either unaffected or showed increased expression	tumor cell death	unaffected	increased	increased	expression of CD47 protein [6]: unaffected; expression of PD-L1 protein [6]: unaffected
